Holding throughout (test): relative viability (nuclei count vs DMSO), 5 days (fraction); higher = more cells survive
Compound in one test: CCOC1=CC=CC=C1N=NC2=C(NN(C2=O)C3=NC(=CS3)C4=CC=CC=C4)C [BAM7]
In a few lines: (§1)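 MetaXpress counted nuclei in 4× images of lung cancer cell lines that had been fixed, permeabilised and Hoechst-stained in one step. Before that, cells in 1536-well plates were kept overnight at 37 °C, pinned with five √10-spaced library-drug doses on vehicle-anchored plates, and cultured 5 days without medium change. Viability takes treated-well nuclei over vehicle-well nuclei and uses the median across plates. Plates were accepted only at control CV below 25% and at least one doubling.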

Compound in test [1]: CCn1c(-c2nonc2N)nc2c(C#CC(C)(C)O)ncc(OC[C@H]3CCCNC3)c21
A digest of the protocol: as §1

Compound in the test “BAM7 + Alpelisib”: CCOC1=CC=CC=C1N=NC2=C(NN(C2=O)C3=NC(=CS3)C4=CC=CC=C4)C [BAM7] + Cc1nc(NC(=O)N2CCC[C@H]2C(N)=O)sc1-c1ccnc(C(C)(C)C(F)(F)F)c1 [Alpelisib] (partner 2 µM)
In a few lines: (§2)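 Five library-drug doses in √10 steps were combined with a fixed anchor-drug dose, or a single drug was given alone, by pin tool to lung cancer cell lines in 1536-well plates the day after seeding. Nuclei were stained and counted after 5 days. Relative viability is the nuclei count in treated wells over that in vehicle wells, taken as the median of duplicate plates.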

Compound in test [2]: CCn1c(-c2nonc2N)nc2c(C#CC(C)(C)O)ncc(OC[C@H]3CCCNC3)c21 + Nc1nc2[nH]cc(CCc3ccc(C(=O)N[C@@H](CCC(=O)O)C(=O)O)cc3)c2c(=O)[nH]1 [Pemetrexed] (partner 0.2 µM)
A digest of the protocol:
as §2

As to EKVX, the relative viability with BAM7 (0.5 µM) is 1.05; with BAM7 (5 µM) it was 0.982; with BAM7 (15.81 µM), 0.843; with BAM7 (50 µM) it was 0.86; in test [1] (0.01 µM), 0.962; in test [1] (0.03162 µM), 0.942. In addition, the relative viability worked out at 0.97 in test [1] (0.1 µM); 0.933 in test [1] (0.3162 µM); 0.924 in test [1] (1 µM); 0.891 with BAM7 + Alpelisib (first compound 0.5 µM); 0.794 with BAM7 + Alpelisib (first compound 5 µM); 0.513 in the test with BAM7 + Alpelisib (first compound 15.81 µM). In addition, the relative viability is 0.597 with BAM7 + Alpelisib (first compound 50 µM); 0.424 in test [2] (first compound 0.01 µM); 0.388 in test [2] (first compound 0.03162 µM); 0.409 in test [2] (first compound 0.1 µM); 0.393 in test [2] (first compound 0.3162 µM); 0.355 in test [2] (first compound 1 µM).

For EMC-BAC-2, the relative viability in the test with BAM7 (0.5 µM) came to 1.03; with BAM7 (5 µM), 1.08; with BAM7 (15.81 µM) it was 1.22; in the test with BAM7 (50 µM) it was 1.02; in test [1] (0.01 µM), 0.919; in test [1] (0.03162 µM) it was 0.725. In addition, the relative viability in test [1] (0.1 µM) was determined as 0.933; in test [1] (0.3162 µM), 0.937; in test [1] (1 µM) it was 1.04; with BAM7 + Alpelisib (first compound 0.5 µM), 0.801; with BAM7 + Alpelisib (first compound 5 µM) it was 0.778; with BAM7 + Alpelisib (first compound 15.81 µM), 0.713. Moreover, the relative viability with BAM7 + Alpelisib (first compound 50 µM) came to 0.772; in test [2] (first compound 0.01 µM), 0.391; in test [2] (first compound 0.03162 µM), 0.427; in test [2] (first compound 0.1 µM), 0.443; in test [2] (first compound 0.3162 µM) it was 0.43; in test [2] (first compound 1 µM), 0.427.

As for EPLC-272H, the relative viability with BAM7 (0.5 µM) turned out to be 0.989; with BAM7 (5 µM) it was 0.95; with BAM7 (15.81 µM), 0.95; with BAM7 (50 µM) it was 0.995; in test [1] (0.01 µM) it was 0.874; in test [1] (0.03162 µM), 0.936. In addition, the relative viability in test [1] (0.1 µM) turned out to be 0.869; in test [1] (0.3162 µM) it was 0.91; in test [1] (1 µM), 0.87; with BAM7 + Alpelisib (first compound 0.5 µM), 1.08; with BAM7 + Alpelisib (first compound 5 µM), 0.802; with BAM7 + Alpelisib (first compound 15.81 µM), 0.877. The relative viability worked out at 0.831 with BAM7 + Alpelisib (first compound 50 µM); 0.299 in test [2] (first compound 0.01 µM); 0.301 in test [2] (first compound 0.03162 µM); 0.346 in test [2] (first compound 0.1 µM); 0.297 in test [2] (first compound 0.3162 µM); 0.282 in test [2] (first compound 1 µM).

In the case of H3255, the relative viability turned out to be 0.99 in the test with BAM7 (0.5 µM); 1.02 with BAM7 (5 µM); 0.963 in the test with BAM7 (15.81 µM); 0.995 with BAM7 (50 µM); 0.924 in test [1] (0.01 µM); 0.949 in test [1] (0.03162 µM). The relative viability came to 0.998 in test [1] (0.1 µM); 0.856 in test [1] (0.3162 µM); 0.904 in test [1] (1 µM); 0.691 with BAM7 + Alpelisib (first compound 0.5 µM); 0.673 with BAM7 + Alpelisib (first compound 5 µM); 0.649 with BAM7 + Alpelisib (first compound 15.81 µM). The relative viability stood at 0.734 with BAM7 + Alpelisib (first compound 50 µM); 0.543 in test [2] (first compound 0.01 µM); 0.571 in test [2] (first compound 0.03162 µM); 0.618 in test [2] (first compound 0.1 µM); 0.536 in test [2] (first compound 0.3162 µM); 0.548 in test [2] (first compound 1 µM).

On to HARA, for which the relative viability turned out to be 0.942 in the test with BAM7 (0.5 µM); 1.01 with BAM7 (5 µM); 0.836 with BAM7 (15.81 µM); 0.986 in the test with BAM7 (50 µM); 0.85 in test [1] (0.01 µM); 0.97 in test [1] (0.03162 µM). The relative viability in test [1] (0.1 µM) worked out at 0.722; in test [1] (0.3162 µM), 0.876; in test [1] (1 µM) it was 0.778; with BAM7 + Alpelisib (first compound 0.5 µM), 0.879; with BAM7 + Alpelisib (first compound 5 µM), 0.816; in the test with BAM7 + Alpelisib (first compound 15.81 µM), 0.594. In addition, the relative viability in the test with BAM7 + Alpelisib (first compound 50 µM) was determined as 0.847; in test [2] (first compound 0.01 µM) it was 0.24; in test [2] (first compound 0.03162 µM), 0.19; in test [2] (first compound 0.1 µM), 0.223; in test [2] (first compound 0.3162 µM), 0.247; in test [2] (first compound 1 µM), 0.249.

HCC-15: the relative viability with BAM7 (0.5 µM) was determined as 1.01; with BAM7 (5 µM), 1.01; in the test with BAM7 (15.81 µM), 0.97; in the test with BAM7 (50 µM) it was 0.927; in test [1] (0.01 µM) it was 0.959; in test [1] (0.03162 µM), 1.02. Moreover, the relative viability in test [1] (0.1 µM) turned out to be 1.04; in test [1] (0.3162 µM) it was 0.952; in test [1] (1 µM), 0.914; with BAM7 + Alpelisib (first compound 0.5 µM), 0.907; in the test with BAM7 + Alpelisib (first compound 5 µM), 0.923; with BAM7 + Alpelisib (first compound 15.81 µM), 0.883. For the same cell line, the relative viability with BAM7 + Alpelisib (first compound 50 µM) came out at 0.853; in test [2] (first compound 0.01 µM) it was 0.218; in test [2] (first compound 0.03162 µM), 0.225; in test [2] (first compound 0.1 µM), 0.218; in test [2] (first compound 0.3162 µM), 0.211; in test [2] (first compound 1 µM), 0.209.

In the case of HCC-44, the relative viability worked out at 0.923 with BAM7 (0.5 µM); 0.997 with BAM7 (5 µM); 1.02 with BAM7 (15.81 µM); 1.01 in the test with BAM7 (50 µM); 0.951 in test [1] (0.01 µM); 0.852 in test [1] (0.03162 µM). Moreover, the relative viability stood at 0.979 in test [1] (0.1 µM); 0.974 in test [1] (0.3162 µM); 0.993 in test [1] (1 µM); 0.829 with BAM7 + Alpelisib (first compound 0.5 µM); 0.708 in the test with BAM7 + Alpelisib (first compound 5 µM); 0.702 in the test with BAM7 + Alpelisib (first compound 15.81 µM). Also, the relative viability with BAM7 + Alpelisib (first compound 50 µM) was 0.735; in test [2] (first compound 0.01 µM), 0.633; in test [2] (first compound 0.03162 µM) it was 0.649; in test [2] (first compound 0.1 µM), 0.661; in test [2] (first compound 0.3162 µM), 0.577; in test [2] (first compound 1 µM), 0.636.

Regarding HCC-78, the relative viability with BAM7 (0.5 µM) is 1.06; in the test with BAM7 (5 µM) it was 0.879; in the test with BAM7 (15.81 µM), 1.07; in the test with BAM7 (50 µM), 1.04; in test [1] (0.01 µM), 0.882; in test [1] (0.03162 µM), 0.926. Also, the relative viability in test [1] (0.1 µM) came to 0.971; in test [1] (0.3162 µM) it was 0.962; in test [1] (1 µM), 0.844; with BAM7 + Alpelisib (first compound 0.5 µM), 0.395; with BAM7 + Alpelisib (first compound 5 µM) it was 0.21; with BAM7 + Alpelisib (first compound 15.81 µM) it was 0.294. Further, the relative viability with BAM7 + Alpelisib (first compound 50 µM) is 0.365; in test [2] (first compound 0.01 µM), 0.864; in test [2] (first compound 0.03162 µM) it was 0.92; in test [2] (first compound 0.1 µM), 0.952; in test [2] (first compound 0.3162 µM) it was 0.871; in test [2] (first compound 1 µM), 0.669.

The values above are taken from the supplement of paper PMC10307832.
